Reference: ChEMBL document CHEMBL4304804, “Synthesis and biological evaluation of calycanthaceous alkaloid analogs” (Bioorg Med Chem, 2019)
In brackets after ≈: the same amount, converted by molar mass. Activity calls are given as the source filed them. The rule behind the calls is not given here.

Legend:
Pseudomonas aeruginosa = assay: Antibacterial activity against Pseudomonas aeruginosa assessed as reduction in bacterial cell growth incubated for 24 hrs by filter paper assay; type: functional
Acetylcholinesterase = Acetylcholinesterase (Electrophorus electricus, UniProt O42275); assay: Inhibition of electric eel AChE by Ellman's colorimetry
Staphylococcus aureus = assay: Antibacterial activity against Staphylococcus aureus assessed as reduction in bacterial cell growth incubated for 24 hrs by filter paper assay; type: functional
Candida tropicalis = assay: Antifungal activity against Candida tropicalis assessed as reduction in fungal cell growth incubated for 48 hrs by serial dilution method; type: functional
Candida = assay: Antifungal activity against […] assessed as reduction in fungal cell growth incubated for 48 hrs by serial dilution method; type: functional
Curvularia lunata [1] = assay: Antifungal activity against Curvularia lunata assessed as reduction in fungal cell growth incubated for 48 hrs by serial dilution method; type: functional
[2] = test system: Fusarium oxysporum f. sp. vasinfectum; assay: Antifungal activity against Fusarium oxysporum sp. vasinfectum assessed as reduction in fungal cell growth incubated for 48 hrs by serial dilution method; type: functional
Ralstonia solanacearum [3] = assay: Antibacterial activity against Ralstonia solanacearum assessed as reduction in bacterial cell growth at 500 ug/ml incubated for 24 hrs by filter paper assay relative to control; type: functional
Penicillium citrinum = assay: Antifungal activity against Penicillium citrinum assessed as reduction in fungal cell growth incubated for 48 hrs by serial dilution method; type: functional
Verticillium dahliae = assay: Antifungal activity against Verticillium dahliae assessed as reduction in fungal cell growth incubated for 48 hrs by serial dilution method; type: functional
Cryptococcus neoformans = assay: Antifungal activity against Cryptococcus neoformans assessed as reduction in fungal cell growth incubated for 48 hrs by serial dilution method; type: functional
Cytospora = assay: Antifungal activity against Cytospora juglandis assessed as reduction in fungal cell growth incubated for 48 hrs by serial dilution method; type: functional
Escherichia coli = assay: Antibacterial activity against Escherichia coli assessed as reduction in bacterial cell growth incubated for 24 hrs by filter paper assay; type: functional
Aspergillus flavus = assay: Antifungal activity against Aspergillus flavus assessed as reduction in fungal cell growth incubated for 48 hrs by serial dilution method; type: functional
[4] = test system: Colletotrichum orbiculare; assay: Antifungal activity against Colletotrichum orbiculare assessed as reduction in fungal cell growth incubated for 48 hrs by serial dilution method; type: functional
Fusarium oxysporum = assay: Antifungal activity against Fusarium oxysporum assessed as reduction in fungal cell growth incubated for 48 hrs by serial dilution method; type: functional
Ralstonia solanacearum [5] = assay: Antibacterial activity against Ralstonia solanacearum assessed as reduction in bacterial cell growth incubated for 24 hrs by filter paper assay; type: functional
Bacillus cereus = assay: Antibacterial activity against Bacillus cereus assessed as reduction in bacterial cell growth incubated for 24 hrs by filter paper assay; type: functional
Aspergillus niger = assay: Antifungal activity against Aspergillus niger assessed as reduction in fungal cell growth incubated for 48 hrs by serial dilution method; type: functional
Curvularia lunata [6] = assay: Antifungal activity against Curvularia lunata assessed as reduction in fungal spore germination at 250 ug/ml relative to control; type: functional
Curvularia lunata [7] = assay: Antifungal activity against Curvularia lunata assessed as reduction in fungal cell growth at 125 ug/ml incubated for 48 hrs by serial dilution method relative to control; type: functional
Curvularia lunata [8] = assay: Antifungal activity against Curvularia lunata assessed as reduction in fungal spore germination at 125 ug/ml relative to control; type: functional
Curvularia lunata [9] = assay: Antifungal activity against Curvularia lunata assessed as reduction in fungal cell growth at 250 ug/ml incubated for 48 hrs by serial dilution method relative to control; type: functional
Curvularia lunata [10] = assay: Antifungal activity against Curvularia lunata assessed as reduction in fungal cell growth at 62.5 ug/ml incubated for 48 hrs by serial dilution method relative to control; type: functional

Sequence of Acetylcholinesterase (O42275 whole entry): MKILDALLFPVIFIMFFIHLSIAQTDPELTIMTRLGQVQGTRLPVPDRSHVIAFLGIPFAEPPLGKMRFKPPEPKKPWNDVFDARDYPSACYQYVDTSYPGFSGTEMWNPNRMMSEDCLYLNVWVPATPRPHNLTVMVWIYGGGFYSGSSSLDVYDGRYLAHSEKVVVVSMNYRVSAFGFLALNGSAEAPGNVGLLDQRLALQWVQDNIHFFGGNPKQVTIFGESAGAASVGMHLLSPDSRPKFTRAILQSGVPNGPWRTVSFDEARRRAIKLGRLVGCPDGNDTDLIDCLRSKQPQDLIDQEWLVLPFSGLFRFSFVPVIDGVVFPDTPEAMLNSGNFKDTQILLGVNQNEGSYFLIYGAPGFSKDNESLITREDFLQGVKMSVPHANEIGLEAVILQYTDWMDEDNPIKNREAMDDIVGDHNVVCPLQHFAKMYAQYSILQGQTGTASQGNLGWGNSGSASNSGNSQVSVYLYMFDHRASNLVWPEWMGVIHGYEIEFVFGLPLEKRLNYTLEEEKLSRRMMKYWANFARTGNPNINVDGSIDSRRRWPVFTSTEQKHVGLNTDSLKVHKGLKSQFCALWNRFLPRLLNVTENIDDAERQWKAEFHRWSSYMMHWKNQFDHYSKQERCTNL

Compound `CCCCCCCC(=O)N1CCCC2(O)c3ccccc3N(C)C12` (configuration not stated) has an MIC (Pseudomonas aeruginosa) of 250 µg/mL (≈ 756 µM), an IC50 (Acetylcholinesterase) of 363 nM and an MIC (Staphylococcus aureus) of 62.5 µg/mL (≈ 189 µM). For the same compound, the MIC (Candida tropicalis) was “inactive”, the MIC (Candida) was “inactive” and the MIC (Curvularia lunata [1]) was 125 µg/mL (≈ 378 µM). The MIC [2] was 250 µg/mL (≈ 756 µM), the inhibition at 500 µg/mL (Ralstonia solanacearum [3]) was 100% and the MIC (Penicillium citrinum) was “inactive”. For the same compound, the MIC (Verticillium dahliae) was 62.5 µg/mL (≈ 189 µM), the MIC (Cryptococcus neoformans) was 125 µg/mL (≈ 378 µM) and the MIC (Cytospora) was 125 µg/mL (≈ 378 µM). For the same compound, the MIC (Escherichia coli) was 62.5 µg/mL (≈ 189 µM), the MIC (Aspergillus flavus) was 125 µg/mL (≈ 378 µM) and the MIC [4] was 250 µg/mL (≈ 756 µM). The MIC (Fusarium oxysporum) was “inactive”, the MIC (Ralstonia solanacearum [5]) was 31.2 µg/mL (≈ 94.6 µM) and the MIC (Bacillus cereus) was 250 µg/mL (≈ 756 µM). It also gave an MIC (Aspergillus niger) of 250 µg/mL (≈ 756 µM).

For `CCCCCCC(=O)N1CCCC2(O)c3ccccc3N(C)C12` (configuration not stated), the MIC (Pseudomonas aeruginosa) was 250 µg/mL (≈ 790 µM), the IC50 (Acetylcholinesterase) was 4200 nM and the MIC (Staphylococcus aureus) was 62.5 µg/mL (≈ 198 µM). The inhibition at 250 µg/mL (Curvularia lunata [6]) was 43.7%, the MIC (Candida tropicalis) was 250 µg/mL (≈ 790 µM) and the MIC (Candida) was “inactive”. The MIC (Curvularia lunata [1]) was 62.5 µg/mL (≈ 198 µM), the MIC [2] was 250 µg/mL (≈ 790 µM) and the MIC (Penicillium citrinum) was “inactive”. It also gave an MIC (Verticillium dahliae) of 62.5 µg/mL (≈ 198 µM), an MIC (Cryptococcus neoformans) of 125 µg/mL (≈ 395 µM) and an inhibition at 125 µg/mL (Curvularia lunata [7]) of 31.3%. The inhibition at 125 µg/mL (Curvularia lunata [8]) was 76.2%, the MIC (Cytospora) was 125 µg/mL (≈ 395 µM) and the inhibition at 250 µg/mL (Curvularia lunata [9]) was 77.7%. For the same compound, the inhibition at 62.5 µg/mL (Curvularia lunata [10]) was 15.5%, the MIC (Escherichia coli) was 125 µg/mL (≈ 395 µM) and the MIC (Aspergillus flavus) was “inactive”. The MIC [4] was 250 µg/mL (≈ 790 µM), the MIC (Fusarium oxysporum) was 250 µg/mL (≈ 790 µM) and the MIC (Ralstonia solanacearum [5]) was 62.5 µg/mL (≈ 198 µM). The MIC (Bacillus cereus) was 250 µg/mL (≈ 790 µM) and the MIC (Aspergillus niger) was 250 µg/mL (≈ 790 µM).
